“Also recorded” adds a separate entry of the source.
Key:
[1] = system: Lewis rat acute EAE; experiment: Acute-active EAE in Lewis rats (MBP immunisation), clinical disease scoring and weight; format: in vivo; settings: for Incidence (%) / Incidence (animals with neurological deficit / group): Lewis rat acute EAE; for Duration / Onset / Peak Disease Score / Cumulative Disease Score / Weight Loss: mean; for Peak Disease Score: scale 0-5; for neurological deficits during acute EAE (in words): following treatment; for severity of paralysis during EAE (in words): vs vehicle
Method: Female Lewis rats (205+10 g) obtained from Charles River, Kent, UK, were housed in pairs under environmentally controlled conditions (6:00 a.m.-6:00 p.m. light/dark cycle; 22-24° C.; 45-55% humidity) and allowed free access to food and water. […] Female Biozzi mice (20±5 g) obtained from Harlan, UK, were housed under the conditions described above. Experimental groups consisted of 7-10 animals.
Rats were immunised in each hind foot with 50 μl of inoculum containing 50 μg guinea pig myelin basic protein (MBP, prepared by the method of Dunkley and Carnegie (1974); final concentration […]), emulsified in Freund's complete adjuvant (CFA; Sigma, UK) containing Mycobacterium tuberculosis H37Ra (final concentration 5.5 mg/ml; Difco Laboratories, UK).
Animals were weighed and monitored daily and clinical disease scored as (0) no clinical signs; (1) flaccid tail and weight loss; (2) hind limb hypotonia with further weight loss; (3) complete hind limb paralysis; (4) paraplegia and (5) death. […] During the period of compound administration (10-16 days post immunisation; dpi) animals were scored 15 h after injection of vehicle or NBQX to avoid any acute effect of treatment on disease score.
NBQX was initially dissolved in NaOH and diluted with water. pH was adjusted with HCl. Rats were injected i.p. twice daily (9 a.m. and 5 p.m.) on days 10 to 16 post immunisation with either vehicle or NBQX in the dose of 30 mg/kg. Mice were injected i.p. either twice daily (9 a.m. and 5 p.m.) on days 10 to 16 post immunisation or once daily (9 a.m.) on days 26 to 42 post immunisation with either vehicle or NBQX in the dose of 30 mg/kg.
GYKI53773 was suspended in 5% cremophore in saline. Rats were injected i.p. twice daily (9 a.m. and 5 p.m.) on days 10 to 16 post immunisation with either vehicle or GYKM53773 in the dose of 30 mg/kg.
GYKM52466 was suspended in 5% cremophore in water. Rats were injected i.p. twice daily (9 a.m. and 5 p.m.) on days 10 to 16 post immunisation with either vehicle or GYKI52466 in the dose of 30 mg/kg.
BIIR561 was suspended in 5% cremophore in water. Rats were injected i.p. twice daily (9 a.m. and 5 p.m.) on days 10 to 16 post immunisation with either vehicle or BIIR561 in the dose of 30 mg/kg.
CP465022 was suspended in 5% cremophore in water. Rats were injected i.p. twice daily (9 a.m. and 5 p.m.) on days 10 to 16 post immunisation with either vehicle or CP465022 in the dose of 10 mg/kg.
MPQX was initially dissolved in NaOH and diluted with water. pH was adjusted with HCl. Rats were injected i.p. twice daily (9 a.m. and 5 p.m.) on days 10 to 16 post immunisation with either vehicle or MPQX in the dose of 10 mg/kg.

[2] = system: chronic EAE in the Biozzi mouse; experiment: Chronic-active EAE in Biozzi mice, clinical disease scoring; format: in vivo
[3] = BIIR561 30 mg/kg i.p. twice daily 10-16 dpi
[4] = rats, 30 mg/kg i.p. twice daily 10-16 dpi
[5] = rats, 30 mg/kg i.p. twice daily 10-16 dpi, 30 mg/kg
[6] = CP465022 10 mg/kg i.p. twice daily 10-16 dpi
[7] = rats, 10 mg/kg i.p. twice daily 10-16 dpi
[8] = rats, 10 mg/kg i.p. twice daily 10-16 dpi, 10 mg/kg
[9] = GYKI52466 30 mg/kg i.p. twice daily 10-16 dpi
[10] = MPQX 10 mg/kg i.p. twice daily 10-16 dpi
[11] = NBQX 30 mg/kg i.p. twice daily 10-16 dpi
[12] = 30 mg/kg i.p. twice daily 10-16 dpi
[13] = GYKI53773 30 mg/kg i.p. twice daily 10-16 dpi

`CN(C)Oc1ccccc1-c1nc(-c2ccccc2)no1` [BIIR561, 5-(2-[N,N-dimethylamino]oxy-phenyl)-3-phenyl-1,2,4-oxadiazol] was tested, and the “Incidence (%)” value [1, 3] was “(100) %”, the “Incidence (animals with neurological deficit / group)” value [1, 3] was 16/16 and the Duration [1, 3] was 3.9 days. For the same compound, the Onset ([1]; n = 16 for BIIR561, 30 mg/kg i.p. twice daily 10-16 dpi) was 12.4 d.p.i, the “Peak Disease Score” value [1, 3] was 2.6 and the “Cumulative Disease Score” value ([1]; summation of daily scores, BIIR561 30 mg/kg i.p. twice daily 10-16 dpi) was 7.8. The “Weight Loss” value ([1]; weight on cessation of experiment as percent of maximum weight before disease onset, BIIR561 30 mg/kg i.p. twice daily) was 17%, the “neurological deficits during acute EAE (in words)” value ([1]; rats) was “reduced neurological deficits” and the “cumulative disease score relative to vehicle treatment (in words)” value [1, 4] was “significantly reduced”. For the same compound, the “peak disease score relative to vehicle treatment (in words)” value [1, 5] was “significantly reduced” and the “severity of paralysis during EAE (in words)” value [1, 4] was “redcues the severity of paralysis”.
In the case of `CCN(CC)Cc1cccc(C=Cc2nc3ccc(F)cc3c(=O)n2-c2ccccc2Cl)n1` [CP465022, 3-(2-chlorophenyl)-2-[2-[6-[(diethylamino)methyl]-2-pyridinyl]ethenyl]-6-fluoro-4(3H)-quinazolinone], the “Incidence (%)” value [1, 6] is reported as “(89) %”, the “Incidence (animals with neurological deficit / group)” value [1, 6] is reported as 8/9 and the Duration [1, 6] is reported as 3.4 days. The Onset ([1]; n = 8 for CP465022, 10 mg/kg i.p. twice daily 10-16 dpi) was 13.4 d.p.i, the “Peak Disease Score” value [1, 6] was 2.0 and the “Cumulative Disease Score” value ([1]; summation of daily scores, CP465022 10 mg/kg i.p. twice daily 10-16 dpi) was 7.2. The “Weight Loss” value ([1]; weight on cessation of experiment as percent of maximum weight before disease onset, CP465022 10 mg/kg i.p. twice daily) was 20%, the “neurological deficits during acute EAE (in words)” value ([1]; rats) was “reduced neurological deficits” and the “cumulative disease score relative to vehicle treatment (in words)” value [1, 7] was “reduced”. For the same compound, the “disease duration relative to vehicle treatment (in words)” value [1, 7] was “reduced”, the “disease onset relative to vehicle treatment (in words)” value [1, 7] was “significantly delayed” and the “peak disease score relative to vehicle treatment (in words)” value [1, 8] was “significantly reduces; also recorded: reduced”. For the same compound, the “severity of paralysis during EAE (in words)” value [1, 7] was “reduces the severity of paralysis”.
In the case of `CC1=NN=C(c2ccc(N)cc2)c2cc3c(cc2C1)OCO3` [GYKI52466, 1-(-aminophenyl)-4-methyl-7,8-methylene-dioxy-5H-2,3-benzodiazepine], the “Incidence (%)” value [1, 9] is reported as “(60) %”, the “Incidence (animals with neurological deficit / group)” value [1, 9] is reported as 15/16 and the Duration [1, 9] is reported as 4.0 days. For the same compound, the Onset ([1]; n = 15, GYKI52466 30 mg/kg i.p. twice daily 10-16 dpi) was 11.6 d.p.i, the “Peak Disease Score” value [1, 9] was 2.4 and the “Cumulative Disease Score” value ([1]; summation of daily scores, GYKI52466 30 mg/kg i.p. twice daily 10-16 dpi) was 8.0. The “Weight Loss” value ([1]; weight on cessation of experiment as percent of maximum weight before disease onset, GYKI52466 30 mg/kg i.p. twice daily) was 20%, the “neurological deficits during acute EAE (in words)” value ([1]; rats) was “reduced neurological deficits” and the “cumulative disease score relative to vehicle treatment (in words)” value [1, 4] was “significantly reduced”. For the same compound, the “peak disease score relative to vehicle treatment (in words)” value [1, 5] was “significantly reduced” and the “severity of paralysis during EAE (in words)” value [1, 4] was “reduces the severity of paralysis”.
`O=c1[nH]c2cc(C(F)(F)F)c(N3CCOCC3)cc2n(CP(=O)(O)O)c1=O` [MPQX] was tested, and the “Incidence (%)” value [1, 10] was “(58) %”, the “Incidence (animals with neurological deficit / group)” value [1, 10] was 7/12 and the Duration [1, 10] was 1.7 days. The Onset ([1]; n = 7 for MPQX, 10 mg/kg i.p. twice daily 10-16 dpi) was 12.3 d.p.i, the “Peak Disease Score” value [1, 10] was 1.2 and the “Cumulative Disease Score” value ([1]; summation of daily scores, MPQX 10 mg/kg i.p. twice daily 10-16 dpi) was 3.2. For the same compound, the “Weight Loss” value ([1]; weight on cessation of experiment (18 dpi) as percent of maximum weight before disease onset, MPQX 10 mg/kg i.p. twice daily) was 22%, the “neurological deficits during acute EAE (in words)” value ([1]; rats) was “reduced neurological deficits” and the “cumulative disease score relative to vehicle treatment (in words)” value [1, 7] was “reduced”. For the same compound, the “disease duration relative to vehicle treatment (in words)” value [1, 7] was “reduced”, the “disease onset relative to vehicle treatment (in words)” value [1, 7] was “significantly delayed” and the “peak disease score relative to vehicle treatment (in words)” value [1, 8] was “significantly reduces; also recorded: reduced”. For the same compound, the “severity of paralysis during EAE (in words)” value [1, 7] was “reduces the severity of paralysis”.
In the case of `NS(=O)(=O)c1cccc2c1c([N+](=O)[O-])cc1nc(O)c(O)nc12` [NBQX, 2,3-dihydroxy6-nitro-7-sulfamoylbenzo-(F)quinoxaline], the “disease severity between dpi 28 to 48 (in words)” value ([2]; Biozzi mice, NBQX 30 mg/kg i.p. once daily for 17 days commencing on dpi 26, P<0.05) is reported as “reduced disease severity”, the “disease severity between dpi 10 to 48 (in words)” value ([2]; Biozzi mice, NBQX 30 mg/kg i.p. twice daily for 7 days starting on dpi 10, P<0.001) is reported as “improved neurological outcome reducing disease severity” and the “severity of paralysis during chronic EAE (in words)” value ([2]; NBQX 30 mg/kg i.p., twice daily 10-16 dpi (A) or once daily 26-42 dpi (B)) is reported as “reduces the severity of paralysis”. For the same compound, the “neurological deficit during chronic EAE (in words)” value ([2]; mice, following treatment) was “reduction in neurological deficit”, the “Incidence (%)” value [1, 11] was “(75) %” and the “Incidence (animals with neurological deficit / group)” value [1, 11] was 4/10. For the same compound, the “onset of weight loss” value ([1]; NBQX 30 mg/kg i.p. twice daily 10-16 dpi, p<0.01) was 13 dpi, the “rats in which development of paralysis was completely prevented” value ([1]; NBQX 30 mg/kg i.p. twice daily from day 10 to 16 post immunisation) was 6 out of 10 and the Duration [1, 12] was 1.5 days. The Onset ([1]; n = 4 for NBQX, 30 mg/kg i.p. twice daily 10-16 dpi) was 11.8 d.p.i, the “Peak Disease Score” value [1, 12] was 0.7 and the “Cumulative Disease Score” value ([1]; summation of individual daily disease scores, 30 mg/kg i.p. twice daily 10-16 dpi) was 2.4. For the same compound, the “Weight Loss” value ([1]; weight on cessation of treatment (16 dpi) as percent of maximum weight before disease onset, 30 mg/kg i.p. twice daily) was 14%, the “neurological deficits during acute EAE (in words)” value ([1]; rats) was “reduction in neurological deficits” and the “cumulative disease score relative to vehicle treatment (in words)” value [1, 4] was “significantly reduced”. For the same compound, the “disease duration relative to vehicle treatment (in words)” value [1, 4] was “significantly reduced”, the “peak disease score relative to vehicle treatment (in words)” value [1, 5] was “significantly reduced” and the “severity of paralysis during EAE (in words)” value [1, 4] was “reduces severity of paralysis”. For the same compound, the “weight loss during the course of EAE (in words)” value ([1]; rats, NBQX 30 mg/kg i.p. twice daily 10-16 dpi, up to cessation of treatment (16 dpi)) was “reduces weight loss; also recorded: decreasing the percent body weight lost”.
“(−)1-(4-aminophenyl)-4-methyl-7,8-methylenedioxy-4,5-dihydro-^3-methylcarbamoyl-2,3-benzodiazepine [GYKI53773]” was tested, and the “Incidence (%)” value [1, 13] was “(60) %”, the “Incidence (animals with neurological deficit / group)” value [1, 13] was 6/10 and the Duration [1, 13] was 1.9 days. The Onset ([1]; n = 6 for GYKI53773, 30 mg/kg i.p. twice daily 10-16 dpi) was 12.7 d.p.i, the “Peak Disease Score” value [1, 13] was 0.9 and the “Cumulative Disease Score” value ([1]; summation of daily scores, GYKI53773 30 mg/kg i.p. twice daily 10-16 dpi) was 2.1. For the same compound, the “Weight Loss” value ([1]; weight on cessation of experiment (20 dpi) as percent of maximum weight before disease onset, GYKI53773 30 mg/kg i.p. twice daily) was 16%, the “neurological deficits during acute EAE (in words)” value ([1]; rats) was “reduced neurological deficits” and the “cumulative disease score relative to vehicle treatment (in words)” value [1, 4] was “significantly reduced”. For the same compound, the “disease duration relative to vehicle treatment (in words)” value [1, 4] was “significantly reduced”, the “peak disease score relative to vehicle treatment (in words)” value [1, 5] was “significantly reduced” and the “peak disease score relative to vehicle treatment (in words)” value ([1]; rats, 30 mg/kg i.p. twice daily 10-16 dpi, listed as GYKM53773, 30 mg/kg) was “significantly reduces”. The “severity of paralysis during EAE (in words)” value [1, 4] was “reduces the severity of paralysis”.
